Data reported in patent publication US12668599B2, “Heterobifunctional compounds and methods of treating disease” (Halda Therapeutics OpCo, Inc., priority 2023, dated 2026).
Like-named read-outs stand apart in the source and are kept apart here.

Legend:
[1] = tested on: T-Rex 293 cell line SC3 cells having increased expression of androgen receptor protein due to exposure to doxycycline; experiment: Cellular growth inhibition, T-Rex 293 SC3 cells with doxycycline-induced androgen receptor (CellTiter-Glo 2.0, 72 hours); assay type: cell-based; conditions: T-Rex 293 SC3 cells with 10 ng/ml doxycycline (increased androgen receptor expression), 72 hours, CellTiter-Glo 2.0
[2] = tested on: T-Rex 293 cell line SC3 cells lacking increased expression of androgen receptor protein; experiment: Cellular growth inhibition, T-Rex 293 SC3 cells without doxycycline (CellTiter-Glo 2.0, 72 hours); assay type: cell-based; conditions: T-Rex 293 SC3 cells not exposed to doxycycline (no increased androgen receptor expression)
VCaP cells = experiment: Cellular growth inhibition assay for VCaP cells (CellTiter-Glo 2.0, 72 hours); assay type: cell-based, human; conditions: CellTiter-Glo 2.0
T47D cells = experiment: Cellular growth inhibition assay for T47D cells (CellTiter-Glo 2.0, 72 hours); assay type: cell-based, human
Experimental: Exemplary compounds were tested for ability to inhibit the proliferation of T47D cells. T47D cells are a commercially available human breast cancer cell line.
T47D cells were purchased from American Type Cell Culture (ATCC Cat #HTB-133) and then seeded on poly-D-lysine coated, black clear-bottom 384-well plates at 3000/well in 25 μL Dulbecco's Modified Eagle Medium (DMEM) supplemented with 10% w/w Fetal bovine serum (FBS), 0.2 units/mL recombinant human insulin (Gibco Cat #12585014), and 1% w/w Pen-Strep. Pen-Strep is a commercially available mixture of penicillin G and streptomycin, which is used in mammalian cell culture media to prevent bacterial contamination. Dulbecco's Modified Eagle Medium (DMEM) supplemented with 10% w/w fetal bovine serum (FBS), 0.2 units/mL recombinant human insulin, and 1% w/w Pen-Strep is herein referred to as Treatment Medium. Following seeding of cells in the plates, the plates were spun at 300×g for 30 seconds, then equilibrated to room temperature for 30 minutes, and then deposited in a humidified tissue culture incubator maintained at 37° C. with 5% CO2.
At 24 hours after seeding of the cells, dilutions of test compound were prepared in DMSO and dissolved in Treatment Medium, to achieve a final DMSO concentration of 0.5% w/w, thereby providing the Test Compound Solution. A 25 μL aliquot of the Test Compound Solution was added to cells in the well plates. An equal volume of a solution containing DMSO and Treatment Medium was used as a negative control. Following treatment of cells with Test Compound Solution or said equal volume of a solution containing DMSO and Treatment Medium, the plates were spun at 300×g for 30 seconds, and then left in an incubator for 72 hours.
At the end of the treatment duration, cell viability was quantified with CellTiter-Glo 2.0 reagent (Promega Cat #G9243). For this purpose, plates were equilibrated to room temperature for 30 minutes, and then 25 μL of CellTiter-Glo 2.0 reagent was added to cells in the plate wells. Plates were then agitated on a shaker for two minutes at 500 rpm and subsequently incubated at room temperature for 10 minutes. Following incubation, the plates were spun at 3000×g for 30 seconds, then sealed with an optical adhesive cover, and luminescence readings were measured with an En Vision Plate Reader (Perkin Elmer).
Data was normalized using zero luminescence for baseline. A four-parameter non-linear regression curve fit was applied to dose-response data in GraphPad Prism data analysis software to determine the half-maximal growth inhibitory concentration (GI50) for each test compound.

| Structure (SMILES) | GI50 (VCaP cells; Homo sapiens, VCaP, 72 h) [nM] | GI50 (T47D cells; Homo sapiens, T47D, 72 h) [nM] | GI50 (T47D cells) [nM] | GI50 (VCaP cells; 72 hours) [nM] | GI50 [1] [nM] | GI50 ([2]; 72 h) [nM] | GI50 [2] [nM] |
| --- | --- | --- | --- | --- | --- | --- | --- |
| COc1cc(O[C@H]2CC[C@H](NC(=O)c3ncc(N4CCC5(CCC(c6ccc(C7=N[C@@H](C)c8nnc(C)n8-c8sc(C)c(C)c87)cc6)CC5)C4)cn3)CC2)ccc1C#N (stereo partly shown) [Compound I-102] | < 500 | < 500 |  |  | < 500 | < 500 |  |
| COc1cc(O[C@H]2CC[C@H](NC(=O)c3ccc(N4CCC5(CN(c6ccc(C7=N[C@@H](C)c8nnc(C)n8-c8sc(C)c(C)c87)cc6)CC5(F)F)C4)nn3)CC2)ccc1C#N (stereo partly shown) [Compound I-103] | 500 to 1500 |  | 500 to 1500 |  | < 500 | < 500 |  |
| Cc1sc2c(c1C)C(c1ccc(CC3CC4(CCN(c5ncc(C(=O)N[C@H]6C(C)(C)[C@H](Oc7ccc(C#N)c(OC(F)(F)F)c7)C6(C)C)cn5)CC4)C3)cc1)=N[C@@H](Cc1ncco1)c1nnc(C)n1-2 [II-1, N-[3-[4-cyano-3-(trifluoromethoxy)phenoxy]-2,2,4,4-tetramethyl-cyclobutyl]-2-[2-[[4-[(9S)-4,5,13-trimethyl-9-(oxazol-2-ylmethyl)-3-thia-1,8,11,12-tetrazatricyclo[8.3.0.0^2,6]trideca-2 (6),4,7,10,12-pentaen-7-yl]phenyl]methyl]-7-azaspiro[3.5]nonan-7-yl]pyrimidine-5-carboxamide] | > 3000 | < 500 |  |  | < 500 | < 500 |  |
| Cc1sc2c(c1C)C(c1ccc(OC3CC4(CCN(c5ncc(C(=O)N[C@H]6C(C)(C)[C@H](Oc7ccc(C#N)c(OC(F)(F)F)c7)C6(C)C)cn5)CC4)C3)cc1)=N[C@@H](Cc1ncco1)c1nnc(C)n1-2 [II-2] |  | < 500 |  |  |  |  |  |
| COc1cc(O[C@H]2C(C)(C)[C@H](NC(=O)c3cnc(N4CCC(CC5CN(c6ccc(C7=N[C@@H](C)c8nnc(C)n8-c8sc(C)c(C)c87)cc6)C5)CC4)nc3)C2(C)C)ccc1C#N [II-3] |  | < 500 |  |  |  |  |  |
| COc1cc(O[C@H]2C(C)(C)[C@H](NC(=O)c3cnc(N4CCC5(CCN(c6ccc(C7=N[C@@H](C)c8nnc(C)n8-c8sc(C)c(C)c87)cc6)CC5)C4)nc3)C2(C)C)ccc1C#N [II-4, N-[3-(4-cyano-3-methoxy-phenoxy)-2,2,4,4-tetramethyl-cyclobutyl]-2-[8-[4-[(9S)-4,5,9,13-tetramethyl-3-thia-1,8,11,12-tetrazatricyclo[8.3.0.0^2,6]trideca-2 (6),4,7,10,12-pentaen-7-yl]phenyl]-2,8-diazaspiro[4.5]decan-2-yl]pyrimidine-5-carboxamide] | < 500 | < 500 |  |  | < 500 | < 500 |  |
| COc1cc(O[C@H]2C(C)(C)[C@H](NC(=O)c3ccc(N4CCC5(CC4)CC(Cc4ccc(C6=N[C@@H](C)c7nnc(C)n7-c7sc(C)c(C)c76)cc4)C5)nc3)C2(C)C)ccc1C#N [II-6] |  | < 500 |  |  |  |  |  |
| COc1cc(O[C@H]2C(C)(C)[C@H](NC(=O)c3cnc(N4CCC5(CCC(c6ccc(C7=N[C@@H](C)c8nnc(C)n8-c8sc(C)c(C)c87)cc6)CC5)C4)nc3)C2(C)C)ccc1C#N [II-7] | 1500 to 3000 | < 500 |  |  | < 500 | < 500 |  |
| COc1cc(O[C@H]2C(C)(C)[C@H](NC(=O)c3cnc(N4CCC5(CCC(c6ccc(C7=N[C@@H](C)c8nnc(C)n8-c8sc(C)c(C)c87)cc6)CC5)C4)nc3)C2(C)C)ccc1C#N [II-8] |  |  | 500 to 1500 |  |  |  |  |
| COc1cc(O[C@H]2C(C)(C)[C@H](NC(=O)c3cnc(N4CCC5(CC4)CC(Cc4ccc(C6=N[C@@H](Cc7ncco7)c7nnc(C)n7-c7sc(C)c(C)c76)c(F)c4)C5)nc3)C2(C)C)ccc1C#N [II-13] | < 500 |  |  |  | < 500 | < 500 |  |
| COc1cc(O[C@H]2C(C)(C)[C@H](NC(=O)c3cnc(N4CCC5(CC4)CC(Oc4ccc(C6=N[C@H](Cc7ncco7)c7nnc(C)n7-c7sc(C)c(C)c76)cc4)C5)nc3)C2(C)C)ccc1C#N [II-14] | > 3000 |  |  |  | < 500 | > 3000 |  |
| CCc1csc2c1C(c1ccc(OC3CC4(CCN(c5ncc(C(=O)N[C@H]6C(C)(C)[C@H](Oc7ccc(C#N)c(OC)c7)C6(C)C)cn5)CC4)C3)cc1)=N[C@@H](Cc1ncco1)c1nnc(C)n1-2 [III-1, N-[(1r,3r)-3-(4-cyano-3-methoxy-phenoxy)-2,2,4,4-tetramethyl-cyclobutyl]-2-[2-[4-[(9S)-5-ethyl-13-methyl-9-(oxazol-2-ylmethyl)-3-thia-1,8,11,12-tetrazatricyclo[8.3.0.0^2,6]trideca-2 (6),4,7,10,12-pentaen-7-yl]phenoxy]-7-azaspiro[3.5]nonan-7-yl]pyrimidine-5-carboxamide] | < 500 |  |  |  | < 500 | 500 to 1500 |  |
| COc1cc(O[C@H]2C(C)(C)[C@H](NC(=O)c3cnc(N4CCC5(CC4)CC(Oc4ccc(C6=N[C@@H](Cc7ncco7)c7nnc(C)n7-c7sc(CO)c(C)c76)cc4)C5)nc3)C2(C)C)ccc1C#N [III-2, N-[(1r,3r)-3-(4-cyano-3-methoxy-phenoxy)-2,2,4,4-tetramethyl-cyclobutyl]-2-[2-[4-[(9S)-4-(hydroxymethyl)-5,13-dimethyl-9-(oxazol-2-ylmethyl)-3-thia-1,8,11,12-tetrazatricyclo[8.3.0.0^2,6]trideca-2 (6),4,7,10,12-pentaen-7-yl]phenoxy]-7-azaspiro[3.5]nonan-7-yl]pyrimidine-5-carboxamide] | < 500 |  |  |  | < 500 | < 500 |  |
| COc1cc(O[C@H]2C(C)(C)[C@@H](NC(=O)c3cnc(N4CCC5(CC4)CC(Oc4ccc(C6=NC(Cc7ncco7)c7nnc(C)n7-c7sc(C)c(C)c76)cc4)C5)nc3)C2(C)C)ccc1C#N (stereo partly shown) [III-3, N-[(1r,3s)-3-(4-cyano-3-methoxy-phenoxy)-2,2,4,4-tetramethyl-cyclobutyl]-2-[2-[4-[4,5,13-trimethyl-9-(oxazol-2-ylmethyl)-3-thia-1,8,11,12-tetrazatricyclo[8.3.0.0^2,6]trideca-2 (6),4,7,10,12-pentaen-7-yl]phenoxy]-7-azaspiro[3.5]nonan-7-yl]pyrimidine-5-carboxamide] | < 500 |  |  |  | < 500 | < 500 |  |

Second part, led by results:

| GI50 (VCaP cells; Homo sapiens, VCaP, 72 h) [nM] | GI50 (T47D cells; Homo sapiens, T47D, 72 h) [nM] | GI50 (T47D cells) [nM] | GI50 (VCaP cells; 72 hours) [nM] | Structure (SMILES) | GI50 [1] [nM] | GI50 ([2]; 72 h) [nM] | GI50 [2] [nM] |
| --- | --- | --- | --- | --- | --- | --- | --- |
|  |  | 1500 to 3000 | 500 to 1500 | COc1cc(O[C@H]2CC[C@H](NC(=O)c3ccc(N4CCC5(CN(c6ccc(C7=N[C@@H](C)c8nnc(C)n8-c8sc(C)c(C)c87)cc6)CC5(F)F)C4)nn3)CC2)ccc1C#N (stereo partly shown) [Compound I-104] | < 500 |  | 500 to 1500 |
| < 500 |  |  |  | COc1cc(O[C@H]2CC[C@H](NC(=O)c3ccc(N4CCC5(CC4)CC(Oc4ccc(C6=N[C@@H](Cc7ncco7)c7nnc(C)n7-c7sc(C)c(C)c76)c(F)c4)C5)nn3)CC2)ccc1C#N [Compound I-128, N-[4-(4-cyano-3-methoxy-phenoxy)cyclohexyl]-6-[2-[3-fluoro-4-[(9S)-4,5,13-trimethyl-9-(oxazol-2-ylmethyl)-3-thia-1,8,11,12-tetrazatricyclo[8.3.0.0^2,6]trideca-2 (6),4,7,10,12-pentaen-7-yl]phenoxy]-7-azaspiro[3.5]nonan-7-yl]pyridazine-3-carboxamide] | < 500 | < 500 |  |
|  |  |  | < 500 | COc1cc(O[C@H]2CC[C@H](NC(=O)c3ccc(N4CCC5(CCN(c6ccc(C7=NC(Cc8ncco8)c8nnc(C)n8-c8sc(C)c(C)c87)cc6C(F)(F)F)CC5)C4)nn3)CC2)ccc1C#N (stereo partly shown) [Compound I-129] | < 500 |  | < 500 |
| < 500 |  |  |  | COc1cc(O[C@H]2CC[C@H](NC(=O)c3ccc(N4CCC5(CC4)CC(Oc4ccc(C6=N[C@@H](Cc7ncco7)c7nnc(C)n7-c7sc(C)c(C)c76)cc4F)C5)nn3)CC2)ccc1C#N [Compound I-133] | < 500 | < 500 |  |
|  |  |  | > 3000 | COc1cc(O[C@H]2CC[C@H](NC(=O)c3ccc(N4CCC5(CCN(c6ccc(C7=NC(Cc8ncco8)c8nnc(C)n8-c8sc(C)c(C)c87)c(C(F)(F)F)c6)CC5)C4)nn3)CC2)ccc1C#N (stereo partly shown) [Compound I-136] | < 500 | > 3000 |  |
|  |  |  | < 500 | COc1cc(O[C@H]2CC[C@H](NC(=O)c3ccc(N4CCC5(CCN(c6ccc(C7=NC(Cc8ncco8)c8nnc(C)n8-c8sc(C)c(C)c87)c(C(F)(F)F)c6)CC5)C4)nn3)CC2)ccc1C#N (stereo partly shown) [Compound I-137] | < 500 |  | > 3000 |
